Source: patent publication US8202904B2, “α-cyano-4-fluoro-3-phenoxybenzyl meta-halo pyrethrate, a process for preparing the same and the uses thereof” (East China Normal University, priority 2007, dated 2012)
Converted amounts (≈) assume the structure as drawn. Like-named read-outs stand apart in the source and are kept apart here.

Legend:
[1] = tested on: Culex pipiens pallens fourth instar wiggler; experiment: Killing effect on wiggler, WHO immersing method, LC50; format: in vivo; conditions: for LC50: Culex pipiens pallens fourth instar wiggler, immersing method, mortality after 24 hours, 26±1° C.; for Relative toxicity: from wiggler LC50, Cypermethrin = 100
Method: The following pyrethrates were tested as representatives according to the method recommended by the World Health Organization (WHO) (Zongbing ZHANG, the assay of toxicity of insecticides, the Science Press, 1988), the commonly used testing breed, Culex pipiens pallens fourth instar wiggler is used as a subject for biological assay, test temperature: 26±1° C., humidity: 70±10%; immersing method: a solution of a certain amount the compound to be tested in acetone was mixed evenly with pure water in the gradually decreasing concentration of 500, 250, 100, 50, 25, 12.5, 6.25, 3.125, 1, 0.5, 0.25, 0.1, 0.05, 0.025, 0.01, 0.005, 0.0025, 0.0001 mg/L, and the mortality of wiggler after 24 hours was calculated and LC50 was calculated to preliminarily evaluate the insecticidal activity. The results were shown in Table I. Compound 1-5 are representative examples of the compound of formula (I) of the present invention: the compounds involved in preparation Example 1-5 were prepared;
At the same time, their relative toxicities were compared with those of Cypermethrin, and Deltamethrin.

[2] = Stability test, ultraviolet lamp irradiation, gas chromatography analysis; format: physicochemical; conditions: 0.15 mmol in 50 ml cyclohexane, 500 W ultraviolet lamp, 30 min
Method: 0.15 mmol of the compound of Preparation Example 2 (cis-α-cyano-3-phenoxy-4-fluoro-benzyl-2,2-dimethyl-3-(2-chlorovinyl)cyclopropane carboxylate) and 0.15 mmol of the corresponding dichloride compound (cis-α-cyano-3-phenoxy-4-fluoro-benzyl-2,2-dimethyl-3-(2,2-dichlorovinyl)cyclopropane carboxylate) were added to two vessels separately, to which 50 ml of cyclohexane were added separately. They were irradiated by a 500 W ultraviolet lamp for 30 min respectively. Then to each of the vessels were added 0.15 mmol of n-hexane as an internal standard for gas chromatography analysis. […] The photodegradation rate of the former is 1.9 times of that of the latter. That is to say, if the same amounts were used, the residue of the former in the environment is lower than that of the latter.

SMILES | LC50 [1] | Relative toxicity [1] | LC50 ([1]; read-out: LC50) | degraded by light [2]
CC1(C)C(C=CCl)C1C(=O)OC(C#N)c1ccc(F)c(Oc2ccccc2)c1 (mixture of isomers) [Compound 1, cis/trans-α-cyano-3-phenoxy-4-fluoro-benzyl-2,2-dimethyl-3-(E/Z-2-chlorovinyl)cyclopropane carboxylate] | 0.00055 mg/L | 1927 |  | 
CC1(C)[C@H](/C=C/F)[C@@H]1C(=O)OC(C#N)c1ccc(F)c(Oc2ccccc2)c1 (relative stereo) [Compound 5, cis-α-cyano-3-phenoxy-4-fluoro-benzyl-2,2-dimethyl-3-(E-2-fluorovinyl)cyclopropane carboxylate] |  | 1740 | 0.00061 mg/L (≈ 0.00159 µM) | 
CC1(C)[C@H](/C=C/Cl)[C@@H]1C(=O)OCc1c(F)c(F)cc(F)c1F (relative stereo) [Compound 6, cis-2,3,5,6-tetrafluoro-4-benzyl-3-(E-2-chlorovinyl)-2,2-dimethylcyclopropane carboxylate] | 0.4810 mg/L (≈ 1.43 µM) | 2 |  | 
Cc1c(F)c(F)c(COC(=O)[C@H]2[C@@H](/C=C/Cl)C2(C)C)c(F)c1F (relative stereo) [Compound 7, cis-2,3,5,6-tetrafluoro-4-methyl benzyl-3-(E-2-chlorovinyl)-2,2-dimethylcyclopropane carboxylate] | 0.0741 mg/L (≈ 0.211 µM) | 14 |  | 
CC1(C)[C@H](/C=C/Cl)[C@@H]1C(=O)OCc1c(F)c(F)c(F)c(F)c1F (relative stereo) [Compound 8, cis-pentafluorobenzyl-3-(E-2-chlorovinyl)-2,2-dimethyl cyclopropane carboxylate] | 0.0801 mg/L (≈ 0.226 µM) | 13 |  | 
Cc1c(F)c(F)c(COC(=O)[C@H]2[C@H](C=CCl)C2(C)C)c(F)c1F (relative stereo) [Compound 10, trans-2,3,5,6-tetrafluoro-4-methylbenzyl-3-(2-chlorovinyl)-2,2-dimethylcyclopropane carboxylate] |  | 18 | 0.0578 mg/L (≈ 0.165 µM) | 
CC1(C)[C@@H](C=CCl)[C@@H]1C(=O)OCc1c(F)c(F)c(F)c(F)c1F (relative stereo) [Compound 11, trans-pentafluorobenzyl-3-(2-chlorovinyl)-2,2-dimethyl cyclopropane carboxylate] | 0.2041 mg/L (≈ 0.575 µM) | 5 |  | 
CC1(C)[C@H](C=CBr)[C@@H]1C(=O)OC(C#N)c1cccc(Oc2ccccc2)c1 (relative stereo) [Compound 12, cis-α-cyano-3-phenoxybenzyl-2,2-dimethyl-3-(2-bromovinyl)cyclopropane carboxylate] |  | 98 | 0.0108 mg/L (≈ 0.0253 µM) | 
CC1(C)[C@@H](C=CCl)[C@@H]1C(=O)OC(C#N)c1cccc(Oc2ccccc2)c1 (relative stereo) [Compound 13, trans-α-cyano-3-phenoxybenzyl-2,2-dimethyl-3-(2-chlorovinyl)cyclopropane carboxylate] |  | 20 | 0.0527 mg/L (≈ 0.138 µM) | 
CC1(C)[C@H](C=C(Cl)Cl)[C@@H]1C(=O)OC(C#N)c1ccc(F)c(Oc2ccccc2)c1 (relative stereo) [corresponding dichloride compound, cis-α-cyano-3-phenoxy-4-fluoro-benzyl-2,2-dimethyl-3-(2,2-dichlorovinyl)cyclopropane carboxylate, reference compound] |  |  |  | 14%
CC1(C)[C@H](C=CBr)[C@H]1C(=O)OC(C#N)c1ccc(F)c(Oc2ccccc2)c1 (stereo partly drawn) [Compound 4, (1R)-Trans-α-cyano-3-phenoxy-4-fluoro-benzyl-2,2-dimethyl-3-(2-bromovinyl)cyclopropane carboxylate] |  | 393 | 0.0027 mg/L (≈ 0.00608 µM) | 
CC1(C)C(C=C(Cl)Cl)C1C(=O)OC(C#N)c1cccc(Oc2ccccc2)c1 (stereo not shown) [Cypermethrin] |  | 100 | 0.0106 mg/L (≈ 0.0255 µM) | 
CC1(C)[C@H](C(=O)O[C@H](C#N)c2cccc(Oc3ccccc3)c2)[C@@H]1C=C(Br)Br [Deltamethrin] |  | 883 | 0.0012 mg/L (≈ 0.00238 µM) | 
